Measurements: patent US20240209028A1, “CNP COMPOUNDS” (priority 2022, published 2024)
Read-outs that look alike come from different tables or passages of the source. Starred links: 1 amine or outer side, 2 acyl side, 3 side chain; linkers in the order of their positions; H or OH if unused. Positions of bridges follow the written chain, without caps; N, C: chain ends. Residues, ends and D or L forms follow the SMILES beside them. *: point of attachment. C18 diacid = O=C(O)CCCCCCCCCCCCCCCCC(=O)*; γGlu = O=C(O)[C@H](CCC(=O)[*:2])N[*:1]; AEEA = NCCOCCOCC(=O)O

Assay: PK of CNP compounds after i.v. and s.c. administration to rats
Conditions: male, Sprague Dawley, in vivo, rat
Protocol: In order to assess the i.v. and s.c. PK/PD profile of CNP compounds of the present invention, formulations of CNP compounds were administered to rats, blood samples taken and exposure and cGMP response measured.
Quantitative plasma analysis of CNP-compounds: Plasma concentrations of CNP compounds were assayed by plasma protein precipitation and analysed by turboflow liquid chromatography mass spectrometry (TF-LC-MS). Calibrators were prepared by spiking either blank rat or minipig plasma with the relevant CNP compound in the range from 0.5 to 2000 nM. Calibrators, plasma blanks or study samples were prepared for TF-LC-MS by protein precipitation by adding three or four volumes of either ethanol or methanol containing 20 nM of internal standard to one volume of sample. For some compounds, formic acid was added to the precipitation reagent (the final concentration was 1% v/v). After the addition of the precipitation reagent, the mixture was centrifuged at 6200 rpm at 4° C. for 30 minutes. After centrifugation, one volume of supernatant was mixed with two volumes of water (with 1% v/v formic acid). The mixture was analysed by TF-LC-MS using a Cyclone turboflow column (0.5×50 mm, ThermoFisher Scientific) and either a XBridge Protein BEH C4 3.5 μm 300 Åor a XBridge Protein BEH C18 3.5 μm 130 Åanalytical column (both were 50×2.1 mm and obtained from Waters). […] The mass spectrometer was operated in positive ionisation mode. A TSQ Altis mass spectrometer (ThermoFisher Scientific) was used as detector in selected reaction monitoring mode (specific transition were optimised for each CNP compound). Linear calibration curves (weighed 1/×2) were used for calculating the concentration in the plasma samples. Quality control samples were included. The deviation between nominal and calculated concentration in the calibrators and quality control samples were below 15%.
Animals and dosing: Groups of 4-6 rats (male, Sprague Dawley, 350 g at arrival, Janvier, France) per compound and route of administration were dosed with a CNP compound formulated either in A) 8 mM sodium phosphate, 250 mM glycerol, 0.007% polysorbate 20, pH 7.4 or B) 5 mM sodium acetate, 250 mM glycerol, 0.007% polysorbate 20, pH 4.0 depending on the respective compound. S.c. dose was 300 nmol/kg, at a concentration of […] resulting in a dosing volume of 0.3 mL/kg, whereas i.v. dose was 100 nmol/kg, at a concentration of […] resulting in a dosing volume of 1 mL/kg.
Sampling: Sublingual blood samples of 250 uL were collected from unanaesthetised rats in EDTA-coated vials (Microvette 600K3E ref #15.1673.100 Sarstedt) at baseline (-1 h before dosing) as well as 5 min (only i.v. dosed groups), 2 h, 6 h, 24 h, 48 h and 72 h (only for exposure analysis) post-dosing. The blood samples were quickly stored on ice and centrifuged (4° C., 8000 RPM, 5 min) within 10 min of collection. Plasma samples of 50 μL were transferred to each micronic tube for either exposure or cGMP analysis, kept on dry ice and stored in a freezer (−20° C.). Rats had access to food (Altromin) and tap water ad libitum.
Analysis: PK parameters were calculated by non-compartment analysis (NCA) using software Phoenix WinNonlin (ver. 8.1 or later, Certara) for each animal. Clearance (Cl) was calculated as: Dose/AUCinf (linear up, log down). […] Bioavailability was calculated as dose normalized AUC's: (AUC(sc)/Dose(sc))/(AUC(iv)/Dose(iv)). Values in the table are means from individual animals (n=4-6 individual animals). The subsequent plots for cGMP plasma concentration versus time are (Y-axis) mean cGMP concentration (n=4-6 individual animals) after IV dosing and (X-axis) nominal plasma sampling time.
Plasma cGMP are reported as the mean.

[1] = iv, i.v., about 100 nmol/kg, read-out: Cl (L/hr/kg), i.v. administration (converted)
[2] = iv, i.v., about 100 nmol/kg, read-out: T½ (hr), i.v. administration (converted)

SMILES | clearance [1] [L/h/kg] | half-life [2] [h] | also measured
CC[C@H](C)[C@@H]1NC(=O)[C@H](CCCNC(=N)N)NC(=O)[C@H](CC(=O)O)NC(=O)[C@H](CC(C)C)NC(=O)[C@@H]2CCCN2C(=O)[C@H](CC(C)C)NC(=O)CNC(=O)[C@H](Cc2ccccc2)NC(=O)[C@@H](NC(=O)CNC(=O)[C@H](CO)NC(=O)[C@H](CO)NC(=O)[C@H](CC(C)C)NC(=O)CNC(=O)[C@H](CCCCN)NC(=O)[C@H](CCCCN)NC(=O)[C@H](CCC(N)=O)NC(=O)[C@H](C)NC(=O)CNC(=O)[C@H](CCCCN)NC(=O)[C@H](Cc2ccc(O)cc2)NC(=O)COCCOCCNC(=O)COCCOCCNC(=O)CC[C@H](NC(=O)CCCCCCCCCCCCCCCCC(=O)O)C(=O)O)CSSC[C@@H](C(=O)O)NC(=O)CNC(=O)[C@H](CC(C)C)NC(=O)CNC(=O)[C@H](CO)NC(=O)[C@H](CC(C)C)NC(=O)[C@H](CO)NC(=O)CNC1=O [compound 1233] ({C18 diacid-γGlu-AEEA-AEEA}-YKGAQKKGLSSGCFGLPLDRIGSLSGLGC-OH; disulfide 13-29) | 0.0246 | 1.42 | bioavailability (sc, s.c. bioavailability, about 300 nmol/kg, read-out: F (%), s.c. administration): 33.8%; half-life (sc, s.c., about 300 nmol/kg, read-out: T½ (hr), s.c. administration (converted)): 3.57 h
CC[C@H](C)[C@@H]1NC(=O)[C@H](CCCNC(=N)N)NC(=O)[C@H](CC(=O)O)NC(=O)[C@H](CC(C)C)NC(=O)[C@H](CCCCN)NC(=O)[C@H](CC(C)C)NC(=O)CNC(=O)[C@H](Cc2ccccc2)NC(=O)[C@@H](NC(=O)CNC(=O)[C@H](CCCCN)NC(=O)[C@H](CO)NC(=O)[C@H](CC(C)C)NC(=O)CNC(=O)[C@H](CCCCN)NC(=O)[C@H](CCCCN)NC(=O)[C@H](CCC(N)=O)NC(=O)[C@H](C)NC(=O)CNC(=O)[C@H](Cc2c[nH]cn2)NC(=O)[C@H](CCC(=O)O)NC(=O)COCCOCCNC(=O)COCCOCCNC(=O)CC[C@H](NC(=O)CCCCCCCCCCCCCCCCC(=O)O)C(=O)O)CSSC[C@@H](C(=O)O)NC(=O)CNC(=O)[C@H](CC(C)C)NC(=O)CNC(=O)[C@H](CO)NC(=O)[C@H](CC(C)C)NC(=O)[C@H](CO)NC(=O)CNC1=O [compound 1235] |  |  | clearance (iv, 100 nmol/kg): 0.0115 L/h/kg; half-life (iv, 100 nmol/kg): 6.2 h; bioavailability (sc, 300 nmol/kg): 65.8%; half-life (sc, 300 nmol/kg): 6.28 h
CC[C@H](C)[C@@H]1NC(=O)[C@H](CCCNC(=N)N)NC(=O)[C@H](CC(=O)O)NC(=O)[C@H](CC(C)C)NC(=O)[C@@H]2CCCN2C(=O)[C@H](CC(C)C)NC(=O)CNC(=O)[C@H](Cc2ccccc2)NC(=O)[C@@H](NC(=O)CNC(=O)[C@H](CO)NC(=O)[C@H](CO)NC(=O)[C@H](CC(C)C)NC(=O)CNC(=O)[C@H](CCCCN)NC(=O)[C@H](CCCCN)NC(=O)[C@H](CCC(N)=O)NC(=O)[C@H](C)NC(=O)CNC(=O)[C@H](Cc2c[nH]cn2)NC(=O)[C@H](Cc2ccc(O)cc2)NC(=O)COCCOCCNC(=O)COCCOCCNC(=O)CC[C@H](NC(=O)CCCCCCCCCCCCCCCCC(=O)O)C(=O)O)CSSC[C@@H](C(=O)O)NC(=O)CNC(=O)[C@H](CC(C)C)NC(=O)CNC(=O)[C@H](CO)NC(=O)[C@H](CC(C)C)NC(=O)[C@H](CO)NC(=O)CNC1=O [compound 1241] ({C18 diacid-γGlu-AEEA-AEEA}-YHGAQKKGLSSGCFGLPLDRIGSLSGLGC-OH; disulfide 13-29) | 0.0164 | 2.78 | 
CC[C@H](C)[C@@H]1NC(=O)[C@H](CCCNC(=N)N)NC(=O)[C@H](CC(=O)O)NC(=O)[C@H](CC(C)C)NC(=O)[C@@H]2CCCN2C(=O)[C@H](CC(C)C)NC(=O)CNC(=O)[C@H](Cc2ccccc2)NC(=O)[C@@H](NC(=O)CNC(=O)[C@H](CO)NC(=O)[C@H](CO)NC(=O)[C@@H](NC(=O)CNC(=O)[C@@H](NC(=O)[C@H](Cc2c[nH]cn2)NC(=O)[C@H](CCC(N)=O)NC(=O)[C@H](C)NC(=O)CNC(=O)[C@H](Cc2c[nH]cn2)NC(=O)[C@H](Cc2ccc(O)cc2)NC(=O)[C@H](CCCCN)NC(=O)[C@H](CCCNC(=N)N)NC(=O)[C@H](C)NC(=O)COCCOCCNC(=O)COCCOCCNC(=O)CC[C@H](NC(=O)CCCCCCCCCCCCCCCCC(=O)O)C(=O)O)[C@@H](C)O)C(C)C)CSSC[C@@H](C(=O)O)NC(=O)CNC(=O)[C@H](CC(C)C)NC(=O)CNC(=O)[C@H](CO)NC(=O)[C@H](CC(C)C)NC(=O)[C@H](CO)NC(=O)CNC1=O [compound 1351] ({C18 diacid-γGlu-AEEA-AEEA}-ARKYHGAQHTGVSSGCFGLPLDRIGSLSGLGC-OH; disulfide 16-32) | 0.0093 | 6.07 | 
CC[C@H](C)[C@@H]1NC(=O)[C@H](CCCNC(=N)N)NC(=O)[C@H](CC(=O)O)NC(=O)[C@H](CC(C)C)NC(=O)[C@@H]2CCCN2C(=O)[C@H](CC(C)C)NC(=O)CNC(=O)[C@H](Cc2ccccc2)NC(=O)[C@@H](NC(=O)CNC(=O)[C@H](CO)NC(=O)[C@H](CO)NC(=O)[C@@H](NC(=O)CNC(=O)[C@@H](NC(=O)[C@H](CCCCN)NC(=O)[C@H](CCC(N)=O)NC(=O)[C@H](C)NC(=O)CNC(=O)[C@H](Cc2c[nH]cn2)NC(=O)[C@H](Cc2ccc(O)cc2)NC(=O)COCCOCCNC(=O)COCCOCCNC(=O)COCCOCCNC(=O)CC[C@H](NC(=O)CCCCCCCCCCCCCCCCC(=O)O)C(=O)O)[C@@H](C)O)C(C)C)CSSC[C@@H](C(=O)O)NC(=O)CNC(=O)[C@H](CC(C)C)NC(=O)CNC(=O)[C@H](CO)NC(=O)[C@H](CC(C)C)NC(=O)[C@H](CO)NC(=O)CNC1=O [compound 1352] ({C18 diacid-γGlu-AEEA-AEEA-AEEA}-YHGAQKTGVSSGCFGLPLDRIGSLSGLGC-OH; disulfide 13-29) | 0.0102 | 6.34 | 
CC[C@H](C)[C@@H]1NC(=O)[C@H](CCCNC(=N)N)NC(=O)[C@H](CC(=O)O)NC(=O)[C@H](CC(C)C)NC(=O)[C@@H]2CCCN2C(=O)[C@H](CC(C)C)NC(=O)CNC(=O)[C@H](Cc2ccccc2)NC(=O)[C@@H](NC(=O)CNC(=O)[C@H](CO)NC(=O)[C@H](CO)NC(=O)[C@@H](NC(=O)CNC(=O)[C@@H](NC(=O)[C@H](CCCCN)NC(=O)[C@H](CCC(N)=O)NC(=O)[C@H](C)NC(=O)CNC(=O)[C@H](Cc2c[nH]cn2)NC(=O)[C@H](Cc2ccc(O)cc2)NC(=O)[C@H](CCCCN)NC(=O)[C@H](CCCNC(=N)N)NC(=O)[C@H](C)NC(=O)COCCOCCNC(=O)COCCOCCNC(=O)CC[C@H](NC(=O)CC[C@H](NC(=O)CCCCCCCCCCCCCCCCC(=O)O)C(=O)O)C(=O)O)[C@@H](C)O)C(C)C)CSSC[C@@H](C(=O)O)NC(=O)CNC(=O)[C@H](CC(C)C)NC(=O)CNC(=O)[C@H](CO)NC(=O)[C@H](CC(C)C)NC(=O)[C@H](CO)NC(=O)CNC1=O [compound 1354] ({C18 diacid-γGlu-γGlu-AEEA-AEEA}-ARKYHGAQKTGVSSGCFGLPLDRIGSLSGLGC-OH; disulfide 16-32) | 0.00652 | 7.56 | 
CC[C@H](C)[C@@H]1NC(=O)[C@H](CCCNC(=N)N)NC(=O)[C@H](CC(=O)O)NC(=O)[C@H](CC(C)C)NC(=O)[C@@H]2CCCN2C(=O)[C@H](CC(C)C)NC(=O)CNC(=O)[C@H](Cc2ccccc2)NC(=O)[C@@H](NC(=O)CNC(=O)[C@H](CO)NC(=O)[C@H](CO)NC(=O)[C@H](CC(C)C)NC(=O)CNC(=O)[C@H](CCCCN)NC(=O)[C@H](CCCCN)NC(=O)[C@H](CCC(N)=O)NC(=O)[C@H](C)NC(=O)CNC(=O)[C@H](CCCCN)NC(=O)[C@H](Cc2ccc(O)cc2)NC(=O)COCCOCCNC(=O)COCCOCCNC(=O)COCCOCCNC(=O)CC[C@H](NC(=O)CC[C@H](NC(=O)CCCCCCCCCCCCCCCCC(=O)O)C(=O)O)C(=O)O)CSSC[C@@H](C(=O)O)NC(=O)CNC(=O)[C@H](CC(C)C)NC(=O)CNC(=O)[C@H](CO)NC(=O)[C@H](CC(C)C)NC(=O)[C@H](CO)NC(=O)CNC1=O [compound 1356] ({C18 diacid-γGlu-γGlu-AEEA-AEEA-AEEA}-YKGAQKKGLSSGCFGLPLDRIGSLSGLGC-OH; disulfide 13-29; C-terminus assumed) | 0.0141 | 3.47 | 
